Experimental data reported in patent EP1163363B1 (priority 1999, dated 2000).
pIC50: −log10 of the molar value.

Legend:
Src kinase = target: T1, Src kinase (Homo sapiens, UniProt P12931); assay: Solution phase FRET assay of Src kinase activity (rhodamine labelled SHPS-1 peptide / SHP2-GFP); format: biochemical; conditions: 10 µM staurosporine added to the reaction prior to Src enzyme; 3 units of Src kinase, 2 hours at 37°C
T1 construct: purchased Upstate Biotechnology
Procedure: SHPS-1 peptide labelled with rhodamine is phosphorylated using 3 units of Src kinase (Upstate Biotechnology) in a 40 µl reaction containing 100 µM peptide, 50 mM Tris-HCl pH7.2, 1 mM ATP, 10 mM MgCl2, 10 mM β-mercaptoethanol, 0.1 mg/ml BSA and 0.015%(v/v) Brij 35, over a period of 2 hours at 37°C. Non-phosphorylated control samples are prepared under identical conditions in the absence of the kinase.
SHP2-GFP is diluted to 0.5 µM in assay buffer (50 mM Tris-HCl pH7.2, 10 mM β-mercaptoethanol, 0.5mg/ml BSA, 0.015% Brij 35). 98 µl of this solution is used per assay. Initial readings of the fluorescence of the SHP2-GFP construct are made using 485nm excitation wavelength and 520nm emission wavelength. Rhodamine labelled peptide (2µl of above phosphorylation reactions) is added to the SHP2-GFP solution and formation of FRET followed in real-time by measuring the decrease in fluorescence emission of SHP2-GFP at 520 nm as shown in Figure 13.
Phosphonlation of the peptide is prevented by inhibiting the enzyme, Src, with the potent kinase inhibitor staurosporine. Phosphorylation of the rhodamine labelled SHPS-1 peptide is performed as described above in the presence and absence of 10 µM staurosporine added to the reaction prior to Src enzyme.

[1] = target: T2, Yersinia protein tyrosine phosphatase (YOP) (Yersinia enterocolitica, UniProt P15273); format: biochemical
T2 construct: purchased Upstate Biotechnology
T2 sequence (P15273 whole entry): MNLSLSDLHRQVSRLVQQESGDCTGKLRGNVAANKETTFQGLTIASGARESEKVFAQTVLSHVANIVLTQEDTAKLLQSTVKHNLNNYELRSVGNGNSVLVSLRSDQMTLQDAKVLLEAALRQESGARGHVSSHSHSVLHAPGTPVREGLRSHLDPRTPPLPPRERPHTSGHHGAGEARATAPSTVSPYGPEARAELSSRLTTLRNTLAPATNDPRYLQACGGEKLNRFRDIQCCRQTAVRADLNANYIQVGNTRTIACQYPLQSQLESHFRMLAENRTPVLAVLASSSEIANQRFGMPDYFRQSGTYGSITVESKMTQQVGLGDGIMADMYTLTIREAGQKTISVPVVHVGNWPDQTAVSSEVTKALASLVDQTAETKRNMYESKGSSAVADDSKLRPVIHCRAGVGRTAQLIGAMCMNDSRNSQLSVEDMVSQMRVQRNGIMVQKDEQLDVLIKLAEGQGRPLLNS

T1 sequence (P12931 whole entry): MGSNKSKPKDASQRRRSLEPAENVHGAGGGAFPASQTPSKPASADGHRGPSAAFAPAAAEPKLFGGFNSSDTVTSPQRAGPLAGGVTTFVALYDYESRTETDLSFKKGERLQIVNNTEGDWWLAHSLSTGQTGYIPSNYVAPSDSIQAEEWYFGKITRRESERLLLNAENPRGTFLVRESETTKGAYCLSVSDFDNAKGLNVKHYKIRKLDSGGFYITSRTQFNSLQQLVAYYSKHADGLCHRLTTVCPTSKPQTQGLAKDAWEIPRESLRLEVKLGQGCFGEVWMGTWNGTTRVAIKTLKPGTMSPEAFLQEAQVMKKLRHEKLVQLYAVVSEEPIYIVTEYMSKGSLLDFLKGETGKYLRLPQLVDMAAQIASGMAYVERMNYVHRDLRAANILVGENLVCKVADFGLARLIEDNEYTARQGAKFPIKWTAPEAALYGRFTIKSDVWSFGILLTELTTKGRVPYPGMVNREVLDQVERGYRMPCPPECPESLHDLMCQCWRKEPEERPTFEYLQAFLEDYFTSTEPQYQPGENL

Compound | Inhibition of Src phosphorylation of SHPS-1 peptide (formation of FRET partnership with SHP2-GFP) (Src kinase) | pIC50 [1]
CN[C@@H]1C[C@H]2O[C@@](C)([C@@H]1OC)n1c3ccccc3c3c4c(c5c6ccccc6n2c5c31)C(=O)NC4 [staurosporine] | fail to form a FRET partnership | –
[Na+].[Na+].[Na+].[O]=[V]([O-])([O-])[O-] [sodium orthovanadate, Sodium orthovanadate] | – | 6.60
